Legend:
MCF7 = assay: NCI in vitro cytotoxicity (SRB, 48 h), Breast panel; format: cell-based; settings: Homo sapiens, MCF7; MCF-7; Table 4; read-out: Comparative efficacy
Experimental: (§1) The imidazothiazole-chalcone hybrids 7a, 7e, 7f, 8f and 19e have been tested against sixty human tumour cell lines derived from nine cancer types (leukemia, non-small cell lung cancer, colon cancer, CNS cancer, melanoma, ovarian cancer, renal cancer, prostate cancer and breast cancer) as per NCI protocol. For each compound, dose response curves for individual cell lines have been measured at a minimum of five concentrations at 10 fold dilutions. A protocol of 48 h continuous drug exposure has been used, and a sulforhodamine B (SRB) protein assay was used to estimate cell viability or growth. The concentration for 50% cell growth inhibition (GI50), total cell growth inhibition (TGI, 0% growth) and 50% cell death (LC50, […]) compared with the control has been calculated (Table-1).

MDA-MB-231/ATCC = assay: as above; format: cell-based; settings: Homo sapiens, Table 4, read-out: Comparative efficacy
Experimental: as §1

SR = assay: NCI in vitro cytotoxicity (SRB, 48 h), Leukemia panel; format: cell-based; settings: Homo sapiens
Experimental: as §1

## C1=Nc2c3c(ccc2=N1)=NCS3 [C, imidazobenzothiazole, reference compound]
MCF7
  IC50: 32.5 µM
MDA-MB-231/ATCC
  IC50: 43.2 µM

## COc1ccc(C(=O)/C=C/c2c(-c3ccc(F)cc3)nc3sccn23)cc1OC [Compound 8e, (E)-1-(3,4-dimethoxyphenyl)-3-(6-(4-fluorophenyl)imidazo[2,1-b]thiazol-5-yl)prop-2-en-1-one]
other
  melting point: 221 to 223 °C

## Cc1ccc(C(=O)/C=C/c2c(-c3ccc(F)cc3)nc3sccn23)cc1C [Compound 9e, (E)-1-(3,4-dimethylphenyl)-3-(6-(4-fluorophenyl)imidazo[2,1-b]thiazol-5-yl)prop-2-en-1-one]
other
  melting point: 210 to 213 °C

## COc1ccc(-c2nc3sccn3c2/C=C/C(=O)c2ccc3c(c2)OCO3)cc1 [Compound 11a, (E)-1-(benzo[d][1,3]dioxol-5-yl)-3-(6-(4-methoxyphenyl)imidazo[2,1-b]thiazol-5-yl)prop-2-en-1-one]
other
  melting point: 189 to 191 °C

## O=C(/C=C/c1c(-c2ccc(F)cc2)nc2sccn12)c1ccc2ccccc2c1 [Compound 12e, (E)-3-(6-(4-fluorophenyl)imidazo[2,1-b]thiazol-5-yl)-1-(naphthalen-2-yl)prop-2-en-1-one]
other
  melting point: 216 to 218 °C

## O=C(/C=C/c1c(-c2ccc(F)cc2)nc2sccn12)c1ccc(-c2ccccc2)cc1 [Compound 13e, (E)-1-(biphenyl-4-yl)-3-(6-(4-fluorophenyl)imidazo[2,1-b]thiazol-5-yl)prop-2-en-1-one]
other
  melting point: 194 to 196 °C

## COc1ccc(-c2nc3sccn3c2/C=C/C(=O)c2cccs2)cc1 [Compound 16a, (E)-3-(6-(4-methoxyphenyl)imidazo[2,1-b]thiazol-5-yl)-1-(thiophen-2-yl)prop-2-en-1-one]
other
  melting point: 169 to 172 °C

## COc1ccc(-c2nc3sccn3c2/C=C/C(=O)c2ccc[nH]2)cc1 [Compound 17a, (E)-3-(6-(4-methoxyphenyl)imidazo[2,1-b]thiazol-5-yl)-1-(1H-pyrrol-2-yl)prop-2-en-1-one]
other
  melting point: 177 to 179 °C

## COc1cc(C(=O)/C=C/c2c(C(F)(F)F)nc3sc(C)cn23)cc(OC)c1OC [Compound 19f, (E)-3-(2-methyl-6-(trifluoromethyl)imidazo[2,1-b]thiazol-5-yl)-1-(3,4,5-trimethoxyphenyl)prop-2-en-1-one]
SR
  GI50: 0.8 µM

Reference: patent publication US8916711B2, “Imidazothiazole-chalcone derivatives as potential anticancer agents and process for the preparation thereof” (Council of Scientific and Industrial Research, priority 2009, dated 2014)
